Here are results for two compounds from article PMC10975012, “The Active Glucuronide Metabolite of the Brain Protectant IMM-H004 with Poor Blood–Brain Barrier Permeability Demonstrates a High Partition in the Rat Brain via Multiple Mechanisms” (Pharmaceutics, 2024).

Structures are written as SMILES. Some results are limits rather than exact numbers.

Data set [1] is described as follows: In situ brain perfusion. Format: in vivo, rat. To be noted: 10 μmol/L. The method, then:
The rat brain was perfused following a previously described method. Briefly, the common carotid arteries on both sides were cannulated and connected to the perfusion system, while the external carotid artery was ligated. At the beginning of perfusion, the jugular veins on both sides were quickly incised. The perfusion procedure consisted of a preperfusion wash with saline for 1 min, followed by drug infusion (2 µmol/L IMM-H004 or IMM-H004G) for 2, 5, and 10 min, and concluded with a postperfusion wash (saline for 5 min) at a rate of 4.0 mL/min. To examine the impact of P-gp (PSC833, 5 µmol/L) and OATP (rifamycin SV, 100 µmol/L) on BBB transport, the perfusate containing the inhibitor was perfused for 1 min, and then the mixture of IMM-H004 or IMM-H004G (10 µmol/L) and the inhibitor was perfused for 10 min. Following the perfusion, the rats were decapitated, and their brains were homogenized (1:3, w/v) in chilled saline. The concentrations of IMM-H004 and IMM-H004G were then determined by LC-MS/MS.
The unidirectional transfer constant Kin (mL/min/g) was calculated using the following equation:(4) Kin=Qbr/Cpf[…] where Qbr/Cpf is the apparent brain distribution volume, Qbr is the measured amount of compound in brain tissue, Cpf is the concentration of compound in the perfusate, and T is the perfusion time.

Data set [2] is described as follows: In vitro metabolism in rat brain homogenate. The data set is classed as in vitro ADME. The method, then: Rat brains were homogenized in chilled saline (1:3, w/v) on ice to obtain the brain homogenate. The incubation mixtures composed of the brain homogenate (2 mg protein/mL), alamethicin (50 μg/mg protein), IMM-H004 (10 μmol/L), and UDPGA (5 mmol/L) in a final volume of 0.2 mL of Tris-HCl buffer (50 mmol/L, pH 7.4) containing 5 mmol/L of MgCl2. Before initiating the reaction, the brain homogenate was preincubated with alamethicin on ice for 15 min. Subsequently, IMM-H004 and UDPGA were added to initiate the reaction. After incubating at 37 °C for 60 min, the reaction was quenched by adding two volumes of acetonitrile containing IS (0.1 μg/mL). On the other hand, IMM-H004G (1 μmol/L) was incubated with the brain homogenate (2 mg protein/mL) for up to 4 h. The concentrations of IMM-H004 and IMM-H004G were determined by LC-MS/MS.

For data set [3] the following is noted: cited from earlier work.
Data set [4] can be described thus: Pharmacokinetics in rats with cerebral microdialysis. The data set is classed as in vivo. Conditions: rat; for Kp: brain (cerebral cortex microdialysate) and plasma, read-out: Kp (AUCbrain/AUCplasma); for peak brain concentration: free concentration (microdialysis); for AUCbrain / concentration at 2 min / AUC: free concentration; for concentration at 2 min / AUC: plasma (free concentration); for AUC: read-out: AUCplasma. The method, then: Rats were anesthetized with isoflurane. Microdialysis intracerebral guide cannulas and CMA 12 Elite Probe (PAES membrane with a MWCO of 20 kDa, 2 mm membrane length (CMA/Microdialysis AB, Stockholm, Sweden)) were implanted into the cerebral cortex at the coordinates relative to bregma: medial/lateral = 3.0 mm; anterior/posterior = 0.5 mm; dorsal/ventral = −3.0 mm. After a 24 h recovery period, the intracerebral probe was connected to the microdialysis cannula, and Ringer’s solution was perfused at a flow rate of 2.0 μL/min. Then, IMM-H004 citrate or IMM-H004G (10 mg/kg) was injected intravenously (iv). Dialysate samples were collected every 5 to 60 min for a duration of 7 h. The probe recovery in vitro was determined by dialyzing a standard mixture of IMM-H004 (50 ng/mL) and IMM-H004G (300 ng/mL) infused with Ringer’s solution.
Blood samples were collected from the orbital plexus into heparinized tubes and subsequently centrifuged to separate the plasma. The concentrations of IMM-H004 and IMM-H004G in both the dialysate and plasma samples were determined using LC-MS/MS analysis. Subsequently, the free concentrations in the brain and plasma were corrected with probe recovery and fu for further analysis, respectively. The pharmacokinetic parameters were calculated via noncompartmental analysis (NCA) using Phoenix WinNonlin 6.3 (Pharsight Corporation, Sunnyvale, CA, USA). The brain–plasma partition coefficient (Kp) was determined as the ratio of the area under the concentration–time curve for the brain (AUCbrain) to that of the plasma (AUCplasma).

Data set [5] can be described thus: Plasma protein binding, rapid equilibrium dialysis. Format: in vitro ADME. To be noted: rat, 0.5–10 μg/mL, RED, 37 °C, read-out: unbound fraction (fu) in rat plasma. The method, then: The rat plasma protein binding of IMM-H004 and IMM-H004G (0.5–10 μg/mL) was investigated using a rapid equilibrium dialysis (RED) assay. The RED plate inserts utilized in this assay contained a dialysis membrane with a molecular weight cut-off of 8 kDa (Thermo Fisher Scientific, Waltham, MA, USA). For the assay, aliquots of plasma (0.2 mL) and phosphate-buffered saline (0.35 mL) were added to the sample chamber and buffer chamber, respectively. The plate was then sealed and incubated at 37 °C, 200 rpm for 4 h. Following the dialysis period, the concentrations of IMM-H004 and IMM-H004G were determined using LC-MS/MS. The ratio of the drug concentration in the buffer to that in the plasma chamber was used to calculate the unbound fraction (fu) of the drugs.

Data set [6] deals with T1, P-gp (Homo sapiens, UniProt P08183).
T1 construct: host or cells: hCMEC/D3
T1 sequence (P08183 whole entry): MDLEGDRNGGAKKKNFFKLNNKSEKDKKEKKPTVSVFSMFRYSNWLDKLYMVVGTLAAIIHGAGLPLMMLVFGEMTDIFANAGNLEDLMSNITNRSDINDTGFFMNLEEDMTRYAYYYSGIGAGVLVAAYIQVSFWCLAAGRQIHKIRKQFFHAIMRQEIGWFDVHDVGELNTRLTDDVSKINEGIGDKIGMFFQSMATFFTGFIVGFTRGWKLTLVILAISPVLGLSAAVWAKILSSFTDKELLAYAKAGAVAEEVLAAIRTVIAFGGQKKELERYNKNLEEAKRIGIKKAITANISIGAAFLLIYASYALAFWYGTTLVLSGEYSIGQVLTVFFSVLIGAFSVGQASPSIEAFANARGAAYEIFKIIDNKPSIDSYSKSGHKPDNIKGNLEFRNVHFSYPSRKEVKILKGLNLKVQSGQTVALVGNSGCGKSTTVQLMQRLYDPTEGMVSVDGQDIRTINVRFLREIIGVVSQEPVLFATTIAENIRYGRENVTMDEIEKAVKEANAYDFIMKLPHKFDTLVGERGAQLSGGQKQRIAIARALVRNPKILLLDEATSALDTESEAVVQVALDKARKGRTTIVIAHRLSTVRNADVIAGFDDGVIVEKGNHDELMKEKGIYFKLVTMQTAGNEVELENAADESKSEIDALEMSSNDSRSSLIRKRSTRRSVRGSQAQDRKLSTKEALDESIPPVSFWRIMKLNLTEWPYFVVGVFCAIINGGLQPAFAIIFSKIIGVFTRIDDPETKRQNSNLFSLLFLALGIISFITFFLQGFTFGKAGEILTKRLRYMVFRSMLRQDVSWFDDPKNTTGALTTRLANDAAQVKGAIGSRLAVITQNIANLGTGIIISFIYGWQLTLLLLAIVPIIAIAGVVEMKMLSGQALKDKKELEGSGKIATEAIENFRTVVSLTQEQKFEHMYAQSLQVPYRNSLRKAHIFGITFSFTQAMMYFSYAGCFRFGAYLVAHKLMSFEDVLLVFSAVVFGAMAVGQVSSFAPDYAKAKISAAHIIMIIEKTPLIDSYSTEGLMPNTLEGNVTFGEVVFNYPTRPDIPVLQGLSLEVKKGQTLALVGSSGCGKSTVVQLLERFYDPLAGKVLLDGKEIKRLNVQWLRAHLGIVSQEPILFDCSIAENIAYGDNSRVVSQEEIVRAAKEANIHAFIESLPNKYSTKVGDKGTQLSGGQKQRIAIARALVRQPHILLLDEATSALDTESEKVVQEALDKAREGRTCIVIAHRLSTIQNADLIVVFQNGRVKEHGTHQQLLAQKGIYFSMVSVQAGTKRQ
In words: Identification of transporters using inhibitors in hCMEC/D3 cells: P-gp. Conditions: substrate 10 μmol/L, PSC833 5 μmol/L. The data set is classed as cell-based. On the procedure: The toxicity of all compounds, including inhibitors and substrates, toward hCMEC/D3 cells, was assessed using the 3-(4,5-Dimethylthiazol-2-yl)-2,5-diphenyltetrazolium bromide (MTT) reduction assay as described previously. To assess the effects of pyrilamine-sensitive proton-coupled organic cation (H^+/OC) antiporter, organic anion transporter (OAT), organic anion-transporting polypeptides (OATPs), organic cation transporter (OCT), and novel organic cation–carnitine transporter (OCTN) inhibitors on the uptake process, IMM-H004 or IMM-H004G (10 µmol/L) combined with the inhibitors were added to the medium after preincubating the cells with the inhibitors for 30 min. For evaluating the impact of the multidrug and toxin extrusion transporter (MATE), P-glycoprotein (P-gp), multidrug resistance protein (MRP), and breast cancer resistance protein (BCRP) on the uptake, IMM-H004 or IMM-H004G (10 µmol/L) was preincubated with the cells for 2 h before the addition of the inhibitors. After removing the supernatant, the cells were washed twice with prewarmed HBSS and incubated with fresh HBSS for 20 min. At the end of incubation, the supernatants were collected. […] The protein content of the lysed cells was determined using a bicinchoninic acid (BCA) assay kit (Beyotime Inc., Shanghai, China). The results were expressed as a percentage of the vehicle control.

[7] abbreviates: after iv IMM-H004 citrate 10 mg/kg.

The fraction unbound is the share of the substance not bound to proteins or other matrix. For the compound `COc1cc(OC2OC(C(=O)O)C(O)C(O)C2O)cc2oc(=O)c(N3CCN(C)CC3)c(C)c12` (stereo not shown) [IMM-H004G], in data set [1] (rifamycin SV 100 μmol/L, 10 min perfusion, rat), the “change in Kin value with OATP inhibitor” value is given as “no significant change”. The “stability of IMM-H004G (change in concentration)” value in data set [2] (1 μmol/L, rat brain homogenate 2 mg/mL protein, 4 h) is listed as “did not result in a reduction in its concentration”. In addition, in data set [3] (rats), the “brain exposure relative to the parent drug” value was “six times higher”. For the same compound, in data set [4] (setting [7]), the “AUCbrain relative to that of IMM-H004” value was determined as 5.4 times, the “AUCplasma relative to that of IMM-H004” value came to 116 times, the Kp worked out at 0.06 and the AUCbrain came to 1.053 µM·h. Further, in data set [4] (setting [7]), the AUC was 16.4 µM·h. Moreover, in data set [4] (after iv IMM-H004G 10 mg/kg), the peak brain concentration was 1712 nmol/L, the AUCbrain was found to be 1.923 µM·h and the concentration at 2 min stood at 40.2 µM. Moreover, the fraction unbound at 4 h in data set [5] was 0.315 ± 0.008. Further, the “uptake with P-gp inhibitor PSC833 relative to control” value in data set [6] was “without affecting”.
As to `COc1cc(O)cc2oc(=O)c(N3CCN(C)CC3)c(C)c12` [IMM-H004], the “increase in Kin value with P-gp inhibitor PSC833 compared to control” value in data set [1] (PSC833 5 μmol/L, 10 min perfusion, rat) came out at 4.3 times. The “Kin value relative to that of IMM-H004G” value in data set [1] (in situ rat brain perfusion) is listed as 18 times higher. Besides, the “formation of IMM-H004G” value in data set [2] (IMM-H004 10 μmol/L, rat brain homogenate, 1 h) is recorded as “time-dependent”. Besides, the elimination half-life in data set [3] (rat plasma and brain tissues, intravenous dosing) was less than 1 h. In addition, in data set [4] (setting [7]), the Kp worked out at 1.39, the AUCbrain was determined as 0.196 µM·h and the AUC worked out at 0.141 µM·h. In data set [4] (after iv IMM-H004G 10 mg/kg), this compound returned a peak brain concentration of 35.1 nmol/L, an AUCbrain of 0.0938 µM·h and a concentration at 2 min of 0.0398 µM. In data set [5], the fraction unbound at 4 h is 0.025 ± 0.002. Besides, the “uptake with P-gp inhibitor PSC833 relative to control” value in data set [6] was 1.3 times that of the control.
